Where two headings read alike, the source gives them in different places.
Assays:
[1] = Lipophilicity (log D), shake-flask method; assay type: physicochemical; conditions: from log D values
Protocol: The log D values were determined, using the shake-flask method as previously described (Wurzer et al. [2020]). The radiolabeled tracer (0.5–1 MBq, 20 μL) was dissolved in 1 mL of a 1/1 mixture (v/v) of PBS (pH 7.4) and n-octanol in a reaction vial (n = 6). After vigorous mixing of the suspension for 3 min at r.t., the vial was centrifuged at 9000 rpm (ca. 7700×g) for 5 min at room temperature (Heraeus Biofuge 15, Thermo Fisher Scientific, Darmstadt, Germany) and 150 μL aliquots of both layers were measured in a ɣ-counter.

[2] = test system: LNCaP tumor xenograft-bearing CB17-SCID mice; assay type: in vivo, mouse
Protocol: All animal experiments were conducted in accordance with general animal welfare regulations in Germany (German animal protection act, as amended on 18.05.2018, Art. 141 G v. 29.3.2017 I 626, approval no. 55.2–1-54-2532-71-13) and the institutional guidelines for the care and use of animals. To establish tumor xenografts, LNCaP cells (approx. 10^7 cells) were suspended in 200 μL of a 1/1 mixture (v/v) of DMEM F-12 and Matrigel (BD Biosciences, Heidelberg, Germany) and inoculated subcutaneously onto the right shoulder of 6–8 weeks old CB17-SCID mice (Charles River Laboratories, Sulzfeld, Germany). Mice were used for experiments when tumor size reached 5–10 mm in diameter (3–6 weeks after inoculation).
(§1) Approximately 2–10 MBq (0.20 nmol) of the ^177Lu-labeled PSMA inhibitors were injected into the tail vein of LNCaP tumor xenograft-bearing male CB17-SCID mice (n = 3 to 5). They were sacrificed by CO2 asphyxiation and cervical dislocation either 1 h or 24 h post injection (p.i.) (n = 3 for [^177Lu]Lu-5, -6 & -7 (proinhibitor compounds I-III), n = 4 for [^177Lu]Lu-10 (alkyne), n = 5 for [^177Lu]Lu-3 (carbamate I) and n = 5 for [^177Lu]Lu-11 (tetrazole)). Selected organs were removed, weighed and organ activities measured in a γ-counter.
as §1, with “2 - 10” for “2–10”, “(alkyne) and” for “(alkyne),”

Structure (SMILES): CC(C)(C)[Si](F)(c1ccc(C(=O)NC[C@@H](NC(=O)CN2CCN(CC(=O)[O-])CCN(CC(=O)[O-])CCN(CC(=O)[O-])CC2)C(=O)N[C@H](CCCCNC(=O)CCC(=O)NCCC[C@@H](NC(=O)CC[C@H](NC(=O)N[C@@H](CCc2nnn[nH]2)C(=O)O)C(=O)O)C(=O)O)C(=O)O)cc1)C(C)(C)C.[Lu+3] [^natLu/[^177Lu]Lu-11]
- increase of lipophilicity compared to [177Lu]Lu-1 [1]: ~ 7.4 fold
- Biodistribution Adrenals ([2]; 1 h p.i.): 0.61 ± 0.42 % ID/g
- Biodistribution Blood ([2]; 1 h p.i.): 1.09 ± 0.30 % ID/g
- Biodistribution Bone ([2]; 1 h p.i.): 0.47 ± 0.44 % ID/g
- Biodistribution Heart ([2]; 1 h p.i.): 0.41 ± 0.04 % ID/g
- Biodistribution Intestine ([2]; 1 h p.i.): 0.67 ± 0.21 % ID/g
- Biodistribution Kidneys ([2]; 1 h p.i.): 33.2 ± 3.8 % ID/g
- Biodistribution Liver ([2]; 1 h p.i.): 0.74 ± 0.17 % ID/g
- Biodistribution Lung ([2]; 1 h p.i.): 1.23 ± 0.27 % ID/g
- Biodistribution Muscle ([2]; 1 h p.i.): 0.15 ± 0.03 % ID/g
- Biodistribution Pancreas ([2]; 1 h p.i.): 0.33 ± 0.11 % ID/g
- Biodistribution Parotid gland ([2]; 1 h p.i.): 0.56 ± 0.08 % ID/g
- Biodistribution Spleen ([2]; 1 h p.i.): 1.04 ± 0.15 % ID/g
- Biodistribution Stomach ([2]; 1 h p.i.): 1.55 ± 1.67 % ID/g
- Biodistribution Submandibular gland ([2]; 1 h p.i.): 0.40 ± 0.05 % ID/g
- Biodistribution Tumor ([2]; 1 h p.i.): 3.40 ± 0.63 % ID/g
- Ratio Tumor-to-blood ([2]; 1 h p.i.): 3.46 ± 1.62
- Ratio Tumor-to-kidney ([2]; 1 h p.i.): 0.10 ± 0.03
- Ratio Tumor-to-liver ([2]; 1 h p.i.): 5.00 ± 2.11
- Ratio Tumor-to-muscle ([2]; 1 h p.i.): 24.9 ± 10.2
- Ratio Tumor-to-parotid gland ([2]; 1 h p.i.): 6.20 ± 1.74
- Ratio Tumor-to-submandibular gland ([2]; 1 h p.i.): 8.74 ± 2.52
- Biodistribution Adrenals ([2]; 24 h p.i.): 0.17 ± 0.19 % ID/g
- Biodistribution Bone ([2]; 24 h p.i.): 0.18 ± 0.04 % ID/g
- Biodistribution Heart ([2]; 24 h p.i.): 0.02 ± 0.00 % ID/g
- Biodistribution Intestine ([2]; 24 h p.i.): 0.52 ± 0.68 % ID/g
- Biodistribution Kidneys ([2]; 24 h p.i.): 3.23 ± 0.77 % ID/g
- Biodistribution Liver ([2]; 24 h p.i.): 0.18 ± 0.04 % ID/g
- Biodistribution Lung ([2]; 24 h p.i.): 0.05 ± 0.02 % ID/g
- Biodistribution Muscle ([2]; 24 h p.i.): 0.02 ± 0.01 % ID/g
- Biodistribution Pancreas ([2]; 24 h p.i.): 0.02 ± 0.00 % ID/g
- Biodistribution Parotid gland ([2]; 24 h p.i.): 0.06 ± 0.02 % ID/g
- Biodistribution Spleen ([2]; 24 h p.i.): 0.11 ± 0.03 % ID/g
- Biodistribution Stomach ([2]; 24 h p.i.): 0.12 ± 0.11 % ID/g
- Biodistribution Submandibular gland ([2]; 24 h p.i.): 0.04 ± 0.01 % ID/g
- Biodistribution Tumor ([2]; 24 h p.i.): 0.68 ± 0.16 % ID/g
- Ratio Tumor-to-blood ([2]; 24 h p.i.): 227 ± 50
- Ratio Tumor-to-kidney ([2]; 24 h p.i.): 0.22 ± 0.06
- Ratio Tumor-to-liver ([2]; 24 h p.i.): 3.74 ± 0.50
- Ratio Tumor-to-muscle ([2]; 24 h p.i.): 55.9 ± 24.3
- Ratio Tumor-to-parotid gland ([2]; 24 h p.i.): 12.2 ± 1.7
- Ratio Tumor-to-submandibular gland ([2]; 24 h p.i.): 16.9 ± 2.2
- factor by which tumor-to-submandibular gland and tumor-to-parotid gland ratios are lower than for [177Lu]Lu-1 ([2]; 24 h p.i.): 8
